Experimental data published in patent publication US12129276B2, “Oxysterols and methods of use thereof” (SAGE THERAPEUTICS, INC., priority 2014, dated 2024).

What follows are compounds tested against T1, NMDA receptor (GRIN1/GRIN2A subunits) expressed in HEK cells (Homo sapiens, UniProt Q05586+Q12879) (assay: Whole-cell patch clamp of mammalian cells, NMDA potentiation). Conditions: 1 μM test article, 30 μM NMDA and 5.0 μM glycine, holding potential −80 mV.
T1 construct: expressed in transfected cells
T1 sequence (Q12879 23-1464, other chains not shown): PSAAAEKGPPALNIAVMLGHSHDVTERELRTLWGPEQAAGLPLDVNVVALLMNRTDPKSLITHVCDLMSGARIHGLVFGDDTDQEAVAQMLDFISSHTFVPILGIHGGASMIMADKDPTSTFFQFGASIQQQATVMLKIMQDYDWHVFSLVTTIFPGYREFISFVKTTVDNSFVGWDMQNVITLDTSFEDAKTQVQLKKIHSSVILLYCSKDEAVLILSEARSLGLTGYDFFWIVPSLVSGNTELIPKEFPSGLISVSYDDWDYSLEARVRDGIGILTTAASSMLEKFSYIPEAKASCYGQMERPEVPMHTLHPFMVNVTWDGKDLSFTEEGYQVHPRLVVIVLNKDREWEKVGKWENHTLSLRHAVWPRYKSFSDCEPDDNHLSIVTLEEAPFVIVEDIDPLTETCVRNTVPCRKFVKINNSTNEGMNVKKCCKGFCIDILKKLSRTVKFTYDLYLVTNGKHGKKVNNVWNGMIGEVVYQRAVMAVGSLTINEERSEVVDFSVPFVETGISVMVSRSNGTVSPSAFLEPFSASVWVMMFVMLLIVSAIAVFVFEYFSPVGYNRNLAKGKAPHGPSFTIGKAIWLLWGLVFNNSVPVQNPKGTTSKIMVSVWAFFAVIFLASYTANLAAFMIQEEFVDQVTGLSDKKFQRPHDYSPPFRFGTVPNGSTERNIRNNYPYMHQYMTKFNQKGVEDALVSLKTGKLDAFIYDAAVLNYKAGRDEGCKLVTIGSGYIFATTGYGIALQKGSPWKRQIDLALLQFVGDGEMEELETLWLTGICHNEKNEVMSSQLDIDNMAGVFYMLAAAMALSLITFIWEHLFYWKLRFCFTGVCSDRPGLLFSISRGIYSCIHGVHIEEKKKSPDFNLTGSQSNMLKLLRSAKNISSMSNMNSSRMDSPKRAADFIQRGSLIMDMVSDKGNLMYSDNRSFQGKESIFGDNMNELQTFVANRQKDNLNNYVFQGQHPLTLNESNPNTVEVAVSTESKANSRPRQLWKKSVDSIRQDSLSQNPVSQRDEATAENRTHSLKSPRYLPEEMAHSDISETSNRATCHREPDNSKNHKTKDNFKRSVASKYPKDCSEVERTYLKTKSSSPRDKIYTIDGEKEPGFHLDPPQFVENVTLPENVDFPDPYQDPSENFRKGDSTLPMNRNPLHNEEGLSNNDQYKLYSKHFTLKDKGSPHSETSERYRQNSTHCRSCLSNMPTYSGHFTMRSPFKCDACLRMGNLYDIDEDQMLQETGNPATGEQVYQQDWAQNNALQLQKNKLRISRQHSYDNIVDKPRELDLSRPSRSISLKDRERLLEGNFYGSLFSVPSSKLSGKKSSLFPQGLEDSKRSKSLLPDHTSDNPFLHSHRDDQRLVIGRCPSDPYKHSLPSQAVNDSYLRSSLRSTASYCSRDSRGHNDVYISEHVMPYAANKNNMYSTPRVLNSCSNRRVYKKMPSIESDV
Assay type: cell-based
Design: key: “A” indicates >5 to 50%; B: >50%; C indicates not active in the assay
Protocol: NMDA potentiation was assessed using either whole cell patch clamp of mammalian cells which expressed NMDA receptors, or using two-electrode voltage clamp (TEVC) of Xenopus laevis oocytes expressing NMDA receptors.
The whole-cell patch-clamp technique was used to investigate the effects of compounds on the NMDA receptor (GRIN1/GRIN2A subunits) expressed in HEK cells. NMDA/Glycine peak and steady-state currents were recorded from stably transfected cells expressing the NMDA receptor and the modulatory effects of the test items on these currents were investigated.
Cells were stably transfected with human GRIN1 (variant NR1-3). These cells were transiently transfected (Lipofectamine™) with GRIN2A cDNA and CD8 (pLeu) antigene cDNA. About 24-72 hours following transfection 1 μl Dynabeads M-45 CD8 was added to identify successfully transfected cells (Jurman et al., Biotechniques (1994) 17:876-881). Cells were passaged to a confluence of 50-80%. Cells were seeded onto Poly-L-Lysine coated cover slips covered with culture complete medium in a 35 mm culture dish. Confluent clusters of cells are electrically coupled (Pritchett et al., Science (1988), 242:1306-8). Because responses in distant cells are not adequately voltage clamped and because of uncertainties about the extent of coupling (Verdoorn et al., Neuron (1990), 4:919-28), cells were cultivated at a density that enables single cells (without visible connections to neighboring cells) to be measured. Cells were incubated at 37° C. in a humidified atmosphere with 5% CO2 (rel. humidity about 95%). The cells were continuously maintained in and passaged in sterile culture flasks containing a 1:1 mixture of Dulbecco's modified eagle medium and nutrient mixture F-12 (D-MEM/F-12 1×, liquid, with L-Glutamine) supplemented with 9% fetal bovine serum and 0.9% Penicillin/Streptomycin solution. The complete medium was supplemented with 3.0 μg/ml Puromycin.
Whole cell currents were measured with HEKA EPC-10 amplifiers using PatchMaster software. Cell culture dishes for recordings were placed on the dish holder of the microscope and continuously perfused (1 ml/min) with “bath solution” (NaCl 137 mM, KCl 4 mM, CaCl2) 1.8 mM, MgCl2 1 mM, HEPES 10 mM, D-Glucose 10 mM, pH (NaOH) 7.4). All solutions applied to cells including the pipette solution were maintained at room temperature (19° C.-30° C.). After formation of a Gigaohm seal between the patch electrodes and transfected individual HEK 293 cells (pipette resistance range: 2.5 MΩ-6.0 MΩ; seal resistance range: >1 GQ) the cell membrane across the pipette tip was ruptured to assure electrical access to the cell interior (whole-cell patch-configuration). At this point the bath solution is switched to “NMDA bath solution” (NaCl 137 mM, KCl 4 mM, CaCl2) 2.8 mM, HEPES 10 mM, D-Glucose 10 mM, Cremophore 0.02%, pH (NaOH) 7.4). NMDA inward currents were measured upon application of 30 μM NMDA (and 5.0 μM Glycine) to patch-clamped cells (2 applications) for 5 s. The cells were voltage clamped at a holding potential of −80 mV. For the analysis of test articles, NMDA receptors were stimulated by 30 μM NMDA and 5.0 μM Glycine after sequential pre-incubation of increasing concentrations of the test article. Pre-incubation duration was 30 s. Stimulation duration was 5 s Test articles were dissolved in DMSO to form stock solutions of 0.1 mM and 1 mM. Test articles were diluted to 0.1 μM and 1 μM in “NMDA bath solution”. Both concentrations of test articles were tested on each cell. […]
In the case of `C[C@H](CCC(C)(C)O)[C@H]1CC[C@H]2[C@@H]3CC=C4C[C@@H](O)CC[C@]4(CO)[C@H]3CC[C@]12C`, the “NMDA 1a2A (%) Potentiation 1 μM” value is reported as “A (“A” indicates >5 to 50%)”. For `COC[C@]12CC[C@](C)(O)C[C@@H]1CC[C@H]1[C@@H]3CC[C@H]([C@H](C)CCCO)[C@@]3(C)CC[C@@H]12`, the “NMDA 1a2A (%) Potentiation 1 μM” value was “C”. With `COC[C@]12CC[C@](C)(O)CC1=CC[C@@H]1[C@@H]2CC[C@]2(C)[C@@H]([C@H](C)CCCO)CC[C@@H]12` the “NMDA 1a2A (%) Potentiation 1 μM” value was “A (“A” indicates >5 to 50%)”. With `COC[C@]12CC[C@](C)(O)CC1=CC[C@@H]1[C@@H]2CC[C@]2(C)[C@@H]([C@H](C)CCC(C)(C)O)CC[C@@H]12` [drawing 25] the “NMDA 1a2A (%) Potentiation 1 μM” value was “A (“A” indicates >5 to 50%)”. In the case of `COC[C@]12CC[C@](C)(O)C[C@@H]1CC[C@H]1[C@@H]3CC[C@H]([C@H](C)CCC(C)(C)O)[C@@]3(C)CC[C@@H]12` [drawing 26], the “NMDA 1a2A (%) Potentiation 1 μM” value is reported as “B (B: >50%)”.

What follows are compounds tested against T2, NR1/NR2A glutamate receptors expressed in mammalian cells (Homo sapiens, UniProt Q05586+Q12879) (assay: Whole-cell patch clamp of mammalian cells (IWB, Ion Works Barracuda)). Conditions: 3 μM test article, co-application with EC20 L-glutamate and 30 μM glycine.
T2 construct: expressed in transfected cells
T2 sequence (Q12879 23-1464, other chains not shown): as above
Assay type: cell-based
Protocol: The whole-cell patch-clamp technique was used to investigate the effects of compounds on NR1/NR2A glutamate receptors expressed in mammalian cells.
Test article effects were evaluated in 8-point concentration-response format (4 replicate wells/concentration). All test and control solutions contained 0.3% DMSO and 0.01% Kolliphor® EL (C5135, Sigma). The test article formulations were loaded in a 384-well compound plate using an automated liquid handling system (SciClone ALH3000, Caliper LifeScienses). The measurements were performed using Ion Works Barracuda platform following this procedure: Electrophysiological Procedures: • a) Intracellular solution (mM): 50 mM CsCl, 90 mM CsF, 2 mM MgCl2, 5 mM EGTA, 10 mM HEPES. Adjust to pH 7.2 with CsOH. • b) Extracellular solution, HB-PS (composition in mM): NaCl, 137; KCl, 1.0; CaCl2, 5; HEPES, 10; Glucose, 10; pH adjusted to 7.4 with NaOH (refrigerated until use). • c) Holding potential: −70 mV, potential during agonist/PAM application: −40 mV. Recording Procedure: • a) Extracellular buffer will be loaded into the PPC plate wells (11 μL per well). Cell suspension will be pipetted into the wells (9 μL per well) of the PPC planar electrode. • b) Whole-cell recording configuration will be established via patch perforation with membrane currents recorded by on-board patch clamp amplifiers. • c) Two recordings (scans) will be performed. First, during pre-application of PAM alone (duration of pre-application—5 min) and second, during test articles and agonist (EC20 L-glutamate and 30 μM glycine) co-application to detect positive modulatory effects of the test article.
Test Article Administration: The first pre-application will consist of the addition of 20 μL of 2× concentrated test article solution and, second, of 20 μL of 1× concentrated test article and agonist at 10 μL/s (2 second total application time).
`COC[C@]12CC[C@](C)(O)C[C@@H]1CC[C@H]1[C@@H]3CC[C@H]([C@H](C)CCC(O)C(F)(F)F)[C@@]3(C)CC[C@@H]12` (stereo partly shown) was tested, and the “GluN2A PCA IWB Ephys % potentiation at 3 μM” value was “B (“B” indicates potentiation of >150%)”. In the case of `COC[C@]12CC[C@](C)(O)CC1=CC[C@@H]1[C@@H]2CC[C@]2(C)[C@@H]([C@H](C)CCC(O)C(F)(F)F)CC[C@@H]12` (stereo partly shown), the “GluN2A PCA IWB Ephys % potentiation at 3 μM” value is reported as “A (“A” indicates 10 to 150%)”. `COC[C@]12CC[C@](C)(O)C[C@@H]1CC[C@H]1[C@@H]3CC[C@H]([C@H](C)CCC(C)(C)O)[C@@]3(C)CC[C@@H]12` [drawing 32] was tested, and the “GluN2A PCA IWB Ephys % potentiation at 3 μM” value was “A (“A” indicates 10 to 150%)”. `COC[C@]12CC[C@](C)(O)CC1=CC[C@@H]1[C@@H]2CC[C@]2(C)[C@@H]([C@H](C)CCC(C)(C)O)CC[C@@H]12` [drawing 28] was tested, and the “GluN2A PCA IWB Ephys % potentiation at 3 μM” value was “A (“A” indicates 10 to 150%)”. For `CCC(O)(CC)CC[C@@H](C)[C@H]1CC[C@H]2[C@@H]3CC=C4C[C@@](C)(O)CC[C@]4(COC)[C@H]3CC[C@]12C`, the “GluN2A PCA IWB Ephys % potentiation at 3 μM” value was “A (“A” indicates 10 to 150%)”.
